Publication PMC2874645 (Aquatic toxicology (Amsterdam, Netherlands), 2010)

Molecular target: T1, farnesoid X receptor alpha (Fxrα) (Oryzias latipes, UniProt H2M6M7)
T1 sequence (H2M6M7 201-485): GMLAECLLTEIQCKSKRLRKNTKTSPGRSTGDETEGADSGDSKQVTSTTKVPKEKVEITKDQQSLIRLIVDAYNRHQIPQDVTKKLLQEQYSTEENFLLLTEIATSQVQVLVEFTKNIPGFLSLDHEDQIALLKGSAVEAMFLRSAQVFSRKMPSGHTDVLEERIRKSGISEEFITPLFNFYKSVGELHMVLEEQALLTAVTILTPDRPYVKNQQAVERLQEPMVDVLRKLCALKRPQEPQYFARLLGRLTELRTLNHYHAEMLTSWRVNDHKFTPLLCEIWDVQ
T1 sequence (Q9UBK2 1-798 partner): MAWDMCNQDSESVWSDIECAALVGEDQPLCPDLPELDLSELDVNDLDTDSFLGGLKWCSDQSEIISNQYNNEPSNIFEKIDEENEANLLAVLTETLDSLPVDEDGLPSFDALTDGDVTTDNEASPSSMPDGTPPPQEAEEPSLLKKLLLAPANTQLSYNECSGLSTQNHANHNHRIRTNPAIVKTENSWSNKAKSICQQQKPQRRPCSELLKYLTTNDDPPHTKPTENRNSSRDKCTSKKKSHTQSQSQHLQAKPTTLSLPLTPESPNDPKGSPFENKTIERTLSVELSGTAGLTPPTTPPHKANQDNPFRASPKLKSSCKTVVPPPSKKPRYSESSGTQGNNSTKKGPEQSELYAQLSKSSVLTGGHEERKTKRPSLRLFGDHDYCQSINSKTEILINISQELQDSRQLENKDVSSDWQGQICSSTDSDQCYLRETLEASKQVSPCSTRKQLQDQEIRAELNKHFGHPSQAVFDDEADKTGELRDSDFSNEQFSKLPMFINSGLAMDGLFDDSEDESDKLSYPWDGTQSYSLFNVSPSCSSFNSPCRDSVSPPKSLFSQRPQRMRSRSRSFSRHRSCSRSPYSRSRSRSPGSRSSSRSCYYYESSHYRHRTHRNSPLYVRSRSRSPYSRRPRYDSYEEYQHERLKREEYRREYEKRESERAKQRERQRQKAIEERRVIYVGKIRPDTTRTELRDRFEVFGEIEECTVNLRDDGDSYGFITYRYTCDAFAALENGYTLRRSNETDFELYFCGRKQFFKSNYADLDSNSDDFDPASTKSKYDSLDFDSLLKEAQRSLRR
Assay: Gal4-LBD luciferase reporter in PLHC-1 cells at […]
Conditions: read-out: Gal4-LBD luciferase reporter in PLHC-1 cells at 100 μM

Structure (SMILES) | fold induction at 100 µM
C[C@H](CCC(=O)O)[C@H]1CC[C@H]2[C@@H]3CC[C@@H]4C[C@H](O)CC[C@]4(C)[C@H]3CC[C@]12C [lithocholic acid] | 10.7
C[C@H](CCC(=O)NCCS(=O)(=O)O)[C@H]1CC[C@H]2[C@@H]3CC[C@@H]4C[C@H](O)CC[C@]4(C)[C@H]3CC[C@]12C [taurine conjugate of LCA] | 10.5
